Results as given in US7345018B2, “Method of treating side effects induced by therapeutic agents” (Reception ApS, priority 2002, dated 2008).
Each block holds one molecule with its values, some of them ahead of it.

Columns and labels:
megalin [1] = molecular target: T1, megalin (Mus musculus, UniProt A2ARV4); assay: Uptake of radioactively labelled gentamicin in wildtype and megalin-deficient (knockout) mice; format: in vivo; conditions: wildtype mice, after 24 hours, radioactively labelled
T1 construct: from tissue; host or cells: kidney of living wildtype mice (in vivo); the knockout mice lack the receptor
Procedure: (§1) Radioactively labelled aminoglycosides (gentamicin) were injected into 26 normal (wildtype) and into 3 megalin-deficient mice (knockout). After 24 hours, the secretion of the aminoglycosides into the urine and their accumulation in the kidneys were determined. In wildtype mice, about 10% of the administered aminoglycosides are accumulated in the kidneys and 40% are secreted into the urine.
(§2) In one embodiment the animal model is a mouse model with an induced megalin gene defect (knockout mouse; Nykjaer, A. et al., Cell 96, 507-515). In these animals, the contribution of megalin and other receptor-mediated or receptor-independent processes to the drug uptake into the kidneys may be tested. The amount of intracellular accumulation of the drug in question as compared to a control having sufficient megalin indicates whether the mechanism of side effects is intracellular accumulation through megalin binding or some other mechanism.

megalin [2] = assay: as above; format: in vivo, mouse; conditions: megalin-deficient knockout mice, after 24 hours
Procedure: as §1, §2

megalin [3] = assay: BIAcore analysis of binding to megalin
cubilin = molecular target: T2, cubilin (Oryctolagus cuniculus, UniProt U3KLX7); assay: BIAcore analysis of binding to cubilin; conditions: for effect of reduction of disulfide-bridges on binding to cubilin: reduced receptor (reducing agent)
T2 construct: Megalin and cubilin purified from rabbit kidney cortex; from tissue

mouse kidney = assay: Inhibition of uptake of radio-labeled gentamicin into mouse kidney; format: in vivo; conditions: intravenous co-infusion, FIG. 5
Text: FIG. 5: Inhibition of uptake of radio-labeled gentamicin into mouse kidney
The drugs were administrated intravenously. […] This is most likely because infused RAP rapidly is cleared from the circulation by uptake into the liver.

megalin [4] = conditions: relative to gentamicin; cited from earlier work
[5] = patients, nephro- and ototoxic side effects; cited from earlier work
megalin [6] = molecular target: T1, megalin; assay: Suppression of radioactive gentamicin uptake into the kidneys of wildtype mice by megalin antagonist; format: in vivo; conditions: co-injection with radioactive gentamicin
Procedure: Two groups of wildtype mice received an injection of radioactive gentamicin. One group was also injected with polymyxin B, a substance that binds with a high affinity to megalin and displaces gentamicin from the receptor. The administration of polymyxin B reduces the uptake of aminoglycosides into the kidneys by more than 60%.

[7] = tested on: cells expressing megalin and cubilin; assay: Inhibition of cellular accumulation of radiolabeled gentamicin; format: cell-based; conditions: FIG. 4
[8] = addition of EDTA (calcium depletion)

T2 sequence (U3KLX7 20-3539): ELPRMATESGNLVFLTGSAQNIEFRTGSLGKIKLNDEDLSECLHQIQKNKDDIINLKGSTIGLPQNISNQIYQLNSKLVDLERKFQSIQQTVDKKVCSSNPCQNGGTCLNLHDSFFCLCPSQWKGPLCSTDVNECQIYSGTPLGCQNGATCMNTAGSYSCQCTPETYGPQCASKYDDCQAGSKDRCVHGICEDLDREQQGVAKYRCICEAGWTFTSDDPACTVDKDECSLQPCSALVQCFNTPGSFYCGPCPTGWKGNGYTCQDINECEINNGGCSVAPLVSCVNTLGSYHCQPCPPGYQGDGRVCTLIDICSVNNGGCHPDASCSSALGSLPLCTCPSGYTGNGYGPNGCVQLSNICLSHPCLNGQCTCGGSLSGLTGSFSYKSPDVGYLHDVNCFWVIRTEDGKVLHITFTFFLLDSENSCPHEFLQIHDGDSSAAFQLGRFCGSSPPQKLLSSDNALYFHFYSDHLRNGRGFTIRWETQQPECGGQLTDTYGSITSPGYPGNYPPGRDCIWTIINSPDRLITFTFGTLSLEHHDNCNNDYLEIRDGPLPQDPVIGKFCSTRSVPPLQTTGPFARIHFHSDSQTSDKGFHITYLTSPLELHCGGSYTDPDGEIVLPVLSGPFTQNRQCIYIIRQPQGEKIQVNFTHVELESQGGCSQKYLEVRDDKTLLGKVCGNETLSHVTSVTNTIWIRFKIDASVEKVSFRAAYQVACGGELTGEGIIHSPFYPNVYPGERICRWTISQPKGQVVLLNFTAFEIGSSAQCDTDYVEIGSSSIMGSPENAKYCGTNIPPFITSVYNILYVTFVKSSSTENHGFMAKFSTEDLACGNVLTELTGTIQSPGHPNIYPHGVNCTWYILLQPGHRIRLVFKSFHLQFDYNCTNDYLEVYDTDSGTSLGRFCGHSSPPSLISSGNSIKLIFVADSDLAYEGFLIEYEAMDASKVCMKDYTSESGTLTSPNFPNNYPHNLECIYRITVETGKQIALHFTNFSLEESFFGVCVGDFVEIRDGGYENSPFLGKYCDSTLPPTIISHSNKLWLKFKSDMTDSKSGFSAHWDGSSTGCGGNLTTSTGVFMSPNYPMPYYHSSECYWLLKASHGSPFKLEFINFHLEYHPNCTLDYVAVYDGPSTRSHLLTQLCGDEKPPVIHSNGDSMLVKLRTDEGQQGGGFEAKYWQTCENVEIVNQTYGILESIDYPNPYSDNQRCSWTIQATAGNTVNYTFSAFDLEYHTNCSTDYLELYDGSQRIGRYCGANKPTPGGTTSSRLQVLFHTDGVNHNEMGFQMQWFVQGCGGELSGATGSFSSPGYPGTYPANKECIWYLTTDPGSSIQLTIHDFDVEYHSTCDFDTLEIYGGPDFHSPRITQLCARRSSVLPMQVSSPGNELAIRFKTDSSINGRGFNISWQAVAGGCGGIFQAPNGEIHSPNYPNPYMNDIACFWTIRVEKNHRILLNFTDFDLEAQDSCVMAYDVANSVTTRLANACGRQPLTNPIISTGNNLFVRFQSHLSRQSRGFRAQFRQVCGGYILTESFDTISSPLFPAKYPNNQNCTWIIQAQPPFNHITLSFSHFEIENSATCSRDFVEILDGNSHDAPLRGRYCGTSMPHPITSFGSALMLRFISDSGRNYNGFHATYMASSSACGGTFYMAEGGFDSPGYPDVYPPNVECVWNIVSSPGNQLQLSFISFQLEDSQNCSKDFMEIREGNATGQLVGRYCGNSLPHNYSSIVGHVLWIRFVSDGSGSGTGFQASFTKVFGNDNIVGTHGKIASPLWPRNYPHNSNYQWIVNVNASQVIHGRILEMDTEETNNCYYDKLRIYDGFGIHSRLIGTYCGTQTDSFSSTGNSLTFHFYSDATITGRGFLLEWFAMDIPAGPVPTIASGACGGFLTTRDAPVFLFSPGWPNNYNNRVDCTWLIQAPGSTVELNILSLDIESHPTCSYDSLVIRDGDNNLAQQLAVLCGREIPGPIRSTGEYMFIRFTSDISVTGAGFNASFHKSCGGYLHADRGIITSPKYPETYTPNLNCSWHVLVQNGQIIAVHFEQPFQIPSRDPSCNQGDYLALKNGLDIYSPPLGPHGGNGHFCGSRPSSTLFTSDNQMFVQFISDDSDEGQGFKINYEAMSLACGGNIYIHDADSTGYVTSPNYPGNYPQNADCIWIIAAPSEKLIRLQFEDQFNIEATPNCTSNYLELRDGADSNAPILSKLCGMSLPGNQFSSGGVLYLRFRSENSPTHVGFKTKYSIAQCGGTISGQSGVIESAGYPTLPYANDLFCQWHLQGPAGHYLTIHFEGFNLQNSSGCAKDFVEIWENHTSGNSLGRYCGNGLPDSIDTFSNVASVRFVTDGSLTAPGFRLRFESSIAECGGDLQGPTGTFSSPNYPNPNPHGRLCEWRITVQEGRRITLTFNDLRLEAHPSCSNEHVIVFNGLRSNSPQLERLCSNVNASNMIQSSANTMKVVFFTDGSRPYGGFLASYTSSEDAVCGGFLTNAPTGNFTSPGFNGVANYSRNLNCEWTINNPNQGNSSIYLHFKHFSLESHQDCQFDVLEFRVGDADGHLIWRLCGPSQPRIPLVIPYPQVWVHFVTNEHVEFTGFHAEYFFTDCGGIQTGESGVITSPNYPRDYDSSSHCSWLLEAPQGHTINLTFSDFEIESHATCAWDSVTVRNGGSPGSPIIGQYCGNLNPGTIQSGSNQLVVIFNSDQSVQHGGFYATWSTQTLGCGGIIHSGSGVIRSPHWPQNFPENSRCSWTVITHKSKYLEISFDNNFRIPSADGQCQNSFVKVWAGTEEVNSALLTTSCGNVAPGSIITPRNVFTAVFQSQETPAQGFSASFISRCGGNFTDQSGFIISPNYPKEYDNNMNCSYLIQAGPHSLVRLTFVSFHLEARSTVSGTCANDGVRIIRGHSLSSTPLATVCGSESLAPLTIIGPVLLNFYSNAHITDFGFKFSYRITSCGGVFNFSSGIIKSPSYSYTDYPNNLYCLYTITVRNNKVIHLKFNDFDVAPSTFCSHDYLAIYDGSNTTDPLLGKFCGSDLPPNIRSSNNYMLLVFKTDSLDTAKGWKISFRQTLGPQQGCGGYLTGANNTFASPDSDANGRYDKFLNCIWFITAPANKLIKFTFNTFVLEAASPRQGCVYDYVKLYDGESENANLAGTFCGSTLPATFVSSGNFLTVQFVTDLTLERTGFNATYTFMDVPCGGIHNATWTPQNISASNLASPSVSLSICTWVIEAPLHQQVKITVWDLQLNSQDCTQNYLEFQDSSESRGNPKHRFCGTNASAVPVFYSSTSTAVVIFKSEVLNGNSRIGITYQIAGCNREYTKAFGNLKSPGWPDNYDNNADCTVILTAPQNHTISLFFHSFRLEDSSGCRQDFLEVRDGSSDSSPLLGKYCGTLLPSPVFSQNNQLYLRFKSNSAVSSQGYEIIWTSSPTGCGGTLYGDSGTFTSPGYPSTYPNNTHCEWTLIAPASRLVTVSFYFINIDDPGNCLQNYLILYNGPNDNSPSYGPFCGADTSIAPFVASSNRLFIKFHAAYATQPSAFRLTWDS

accumulation of administered aminoglycoside in the kidneys (megalin [1]): about 10%
secretion of administered aminoglycoside into the urine (megalin [1]): 40%
accumulation of aminoglycoside in the kidneys (megalin [2]): no accumulation
secretion of antibiotic into the urine (megalin [2]): 40%
binding to megalin (megalin [3]; BIAcore, FIG. 3 panel A): direct binding
effect of EDTA on binding to megalin (megalin [3]; [8]): does not abolish binding
binding to cubilin (cubilin; BIAcore, FIG. 3 panel B): direct binding
effect of EDTA on binding to cubilin (cubilin; [8]): does not abolish binding
Molecule: gentamicin
effect of reduction of disulfide-bridges on binding to megalin (megalin [3]; reduced receptor): does not significantly interefere with ligand binding
effect of reduction of disulfide-bridges on binding to cubilin (cubilin): does not significantly interefere with ligand binding
inhibition of uptake of radio-labeled gentamicin into mouse kidney (mouse kidney): can be inhibited

Molecule: NCC[C@H](O)C(=O)N[C@@H]1C[C@H](N)[C@@H](O[C@H]2O[C@H](CN)[C@@H](O)[C@H](O)[C@H]2O)[C@H](O)[C@H]1O[C@H]1O[C@H](CO)[C@@H](O)[C@H](N)[C@H]1O [amikacin]
poorer binding than gentamicin to megalin (megalin [4]): about 5 times
rate of toxicity [5]: 1-4%

reduction of uptake of aminoglycosides into the kidneys (megalin [6]): more than 60%
Molecule: polymyxin B
inhibition of cellular accumulation of radiolabeled gentamicin [7]: inhibit gentamioin uptake
inhibition of uptake of radio-labeled gentamicin into mouse kidney (mouse kidney): can be inhibited

Molecule: poly-L-aspartate
inhibition of cellular accumulation of radiolabeled gentamicin [7]: not

Molecule: poly-L-lysine
inhibition of cellular accumulation of radiolabeled gentamicin [7]: can be inhibited
inhibition of uptake of radio-labeled gentamicin into mouse kidney (mouse kidney): can be inhibited

effect of reduction of disulfide-bridges on binding to cubilin (cubilin): significantly inhibited
Molecule: RAP: receptor-associated protein, a cellular protein comprising about 300 amino acids, known to bind to megalin
inhibition of cellular accumulation of radiolabeled gentamicin [7]: able to inhibit at least partly

Molecule: aprotinin
inhibition of cellular accumulation of radiolabeled gentamicin [7]: inhibit gentamioin uptake
